Where two headings read alike, the source gives them in different places.
What was measured:
Escherichia coli JM109 = settings: LB liquid medium, 37° C.
Protocol: (§1) A growth inhibition test in aerobic culture was performed to examine the influence of phenol on Corynebacterium glutamicum, Escherichia coli, and Pseudomonas putida. Pseudomonas putida S12, which was used for the test, is reported to be a solvent-resistant strain. In the report, disclosed is an unparalleled technology using the strain as a host in phenol production.
Escherichia coli JM109 was applied to LB agar medium (1% polypeptone, 0.5% yeast extract, 0.5% NaCl and 1.5% agar) and was left stand in the dark at 37° C. for 15 hours.
An inoculation loop of the Escherichia coli JM109 grown on a plate as above was inoculated into a test tube containing 10 mL of LB liquid medium (1% polypeptone, 0.5% yeast extract, and 0.5% NaCl), and aerobic culture was performed with shaking at 37° C. for 13 hours.
(§2) The Escherichia coli JM109 grown in the above conditions was inoculated into 100 mL of LB liquid medium in such a way that the initial bacterial cell concentration would be OD610=0.05, phenol was added at the same time in such a way that the final concentration would be 0, 0.16, or 0.20 mM, and aerobic culture was performed with shaking at 37° C. The growth of bacterial cells was determined by absorbance measurement at OD610.
(§3) The growth of bacterial cells was determined by absorbance measurement at OD610.

Pseudomonas putida F1 = settings: LB (+glucose) liquid medium, 30° C.
Protocol: as §1
(§4) Pseudomonas putida F1 and S12 were applied to LB agar medium (1% polypeptone, 0.5% yeast extract, 0.5% NaCl and 1.5% agar) and were left stand in the dark at 30° C. for 15 hours.
(§5) An inoculation loop of each of the Pseudomonas putida F1 and S12 grown on a plate as above was inoculated into a test tube containing 10 mL of LB (+glucose) liquid medium (1% polypeptone, 0.5% yeast extract, 0.5% NaCl and 0.4% glucose), and aerobic culture was performed with shaking at 30° C. for 13 hours.
(§6) The Pseudomonas putida F1 and S12 grown in the above conditions were each inoculated into 100 mL of LB (+glucose) liquid medium in such a way that the initial bacterial cell concentration would be OD610=0.05, phenol was added at the same time in such a way that the final concentration would be 0, 0.10, or 0.20 […], and aerobic culture was performed with shaking at 30° C.
as §3

Pseudomonas putida S12 = settings: LB (+glucose) liquid medium, 30° C.
Protocol: as §1, §4, §5, §6, §3

[1] = system: Corynebacterium glutamicum R; settings: A liquid medium, 33° C.
Protocol: as §1
Corynebacterium glutamicum R was applied to A agar medium (2 g of (NH2)2CO3 7 g of (NH4)2SO4, 0.5 g of KH2PO4, 0.5 g of K2HPO4, 0.5 g of MgSO4.7H2O, 1 mL of 0.06% (w/v) Fe2SO4.7H2O+0.042% (w/v) MnSO4.2H2O, 1 mL of 0.02% (w/v) biotin solution, 2 mL of 0.01% (w/v) thiamin solution, 2 g of yeast extract, 7 g of vitamin assay casamino acid, 40 g of glucose, and 15 g of agar were suspended in 1 L of distilled water) and was left stand in the dark at 33° C. for 15 hours.
An inoculation loop of the Corynebacterium glutamicum R grown on a plate as above was inoculated into a test tube containing 10 mL of A liquid medium (2 g of (NH2)2CO3 7 g of (NH4)2SO4, 0.5 g of KH2PO4, 0.5 g of K2HPO4, 0.5 g of MgSO4.7H2O, 1 mL of 0.06% (w/v) Fe2SO4.7H2O+0.042% (w/v) MnSO4.2H2O, 1 mL of 0.02% (w/v) biotin solution, 2 mL of 0.01% (w/v) thiamin solution, 2 g of yeast extract, 7 g of vitamin assay casamino acid, and 40 g of glucose were suspended in 1 L of distilled water) and was aerobically cultured with shaking at 33° C. for 13 hours.
as §2, with “Corynebacterium glutamicum R” for “Escherichia coli JM109”, “A” for “LB”, “0.16, 0.2, 0.24,” for “0.16,”, “0.32” for “0.20”, “33°” for “37°”
as §3

Structure (SMILES): Oc1ccccc1 [phenol]
- influence of phenol on aerobic proliferation (OD610) (Escherichia coli JM109; 0.16% phenol): significantly affected
- influence of phenol on aerobic proliferation (OD610) (Escherichia coli JM109; 0.20% phenol): completely inhibited
- influence of phenol on aerobic proliferation (OD610) (Pseudomonas putida F1; 0.10% phenol): significantly affected
- influence of phenol on aerobic proliferation (OD610) (Pseudomonas putida F1; 0.20% phenol): completely inhibited
- influence of phenol on aerobic proliferation (OD610) (Pseudomonas putida S12; 0.10% phenol): significantly affected
- influence of phenol on aerobic proliferation (OD610) (Pseudomonas putida S12; 0.20% phenol): completely inhibited
- influence of phenol on aerobic proliferation (OD610) ([1]; 0.16% phenol): hardly affected
- influence of phenol on aerobic proliferation (OD610) ([1]; 0.20% phenol): favorable growth
- influence of phenol on aerobic proliferation (OD610) ([1]; 0.24% phenol): able to proliferate

Source: patent US9090900B2, “Coryneform bacterium transformant and process for producing phenol using the same” (priority 2010, dated 2015)
